Legend:
Assay in all cases: Mass spectroscopy proteomics, semi-quantitative binding affinity of serum proteins (plaqueproteome, Table 2)
Details in all cases: higher number = stronger affinity
[1] = target: T1, Abeta-42 plaque particles (Homo sapiens, UniProt P05067)
T1 construct: Abeta 1-42
Method in brief: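 AD patient serum or plasma (50% in PBS) was incubated with Abeta-42 aggregates (30 μg) for 1 h at 37 °C, then stained with Thioflavin S for 30 min. Labeled particles were FACS-sorted, trypsin/Lys-C digested overnight and analyzed by MS/MS. Sequest searched human UniProt; Scaffold/Protein Prophet validated the identifications.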

[2] = system: High Density cholesterol (Chl Large) plaque particles; parameters: species or system human
Method in brief: (§1)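 Atherosclerotic plasma/serum (50% in PBS) + 30 μg cholesterol aggregates, 1 hr 37° C; FACS gates split low- vs high-density particles. Acetone precipitation, urea/ProteaseMAX, acrylamide alkylation, overnight Trypsin/Lys C at 37° C; Sequest search, Scaffold/Protein Prophet validation.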

[3] = system: Low density cholesterol (Chl small) plaque particles; parameters: species or system human
Method in brief: as §1

[4] = target: T2, alpha-synuclein plaque particles (Homo sapiens, UniProt P37840)
T2 construct: 140 amino acids polypeptide
Method in brief: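 AD-subject plasma or serum (800 μL of 50%) mixed with 30 μg preformed alpha-synuclein aggregates for 1 h at 37 °C; Thioflavin S-positive particles isolated by flow sorting. After reduction, acrylamide alkylation and overnight tryptic digestion, serum proteins identified by MS/MS with Sequest and Scaffold.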

Tau plaque particles = system: Tau plaque particles; parameters: species or system human
Method in brief: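 Serum or plasma proteins captured on Thioflavin S-labelled Tau plaque particles (Tau-74, Tau-275 oligomers preformed in PBS at 37° C for 2 h; 1 h co-incubation at 37° C) were isolated by FACS sorting, then tryptically digested and identified by MS/MS (Sequest, human UniProt, strict trypsin).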

Lumican
Semi-quantitative analysis of proteins binding to different plaque particles: Abeta-42 [1]: 0 | Semi-quantitative analysis of proteins binding to different plaque particles: Chl Large [2]: 4 | Semi-quantitative analysis of proteins binding to different plaque particles: Chl small [3]: 3 | Semi-quantitative analysis of proteins binding to different plaque particles: Synuclein [4]: 0 | Semi-quantitative analysis of proteins binding to different plaque particles: Tau (Tau plaque particles): 0

Lysozyme C
Semi-quantitative analysis of proteins binding to different plaque particles: Abeta-42 [1]: 4 | Semi-quantitative analysis of proteins binding to different plaque particles: Chl Large [2]: 0 | Semi-quantitative analysis of proteins binding to different plaque particles: Chl small [3]: 0 | Semi-quantitative analysis of proteins binding to different plaque particles: Synuclein [4]: 0 | Semi-quantitative analysis of proteins binding to different plaque particles: Tau (Tau plaque particles): 0

Myosin-1
Semi-quantitative analysis of proteins binding to different plaque particles: Abeta-42 [1]: 22 | Semi-quantitative analysis of proteins binding to different plaque particles: Chl Large [2]: 0 | Semi-quantitative analysis of proteins binding to different plaque particles: Chl small [3]: 0 | Semi-quantitative analysis of proteins binding to different plaque particles: Synuclein [4]: 0 | Semi-quantitative analysis of proteins binding to different plaque particles: Tau (Tau plaque particles): 0

Myosin-6
Semi-quantitative analysis of proteins binding to different plaque particles: Abeta-42 [1]: 17 | Semi-quantitative analysis of proteins binding to different plaque particles: Chl Large [2]: 0 | Semi-quantitative analysis of proteins binding to different plaque particles: Chl small [3]: 0 | Semi-quantitative analysis of proteins binding to different plaque particles: Synuclein [4]: 0 | Semi-quantitative analysis of proteins binding to different plaque particles: Tau (Tau plaque particles): 0

Myosin-13
Semi-quantitative analysis of proteins binding to different plaque particles: Abeta-42 [1]: 17 | Semi-quantitative analysis of proteins binding to different plaque particles: Chl Large [2]: 0 | Semi-quantitative analysis of proteins binding to different plaque particles: Chl small [3]: 0 | Semi-quantitative analysis of proteins binding to different plaque particles: Synuclein [4]: 0 | Semi-quantitative analysis of proteins binding to different plaque particles: Tau (Tau plaque particles): 0

Nucleoside diphosphate kinase A
Semi-quantitative analysis of proteins binding to different plaque particles: Abeta-42 [1]: 5 | Semi-quantitative analysis of proteins binding to different plaque particles: Chl Large [2]: 0 | Semi-quantitative analysis of proteins binding to different plaque particles: Chl small [3]: 0 | Semi-quantitative analysis of proteins binding to different plaque particles: Synuclein [4]: 4 | Semi-quantitative analysis of proteins binding to different plaque particles: Tau (Tau plaque particles): 0

POTE ankyrin domain family member E
Semi-quantitative analysis of proteins binding to different plaque particles: Abeta-42 [1]: 18 | Semi-quantitative analysis of proteins binding to different plaque particles: Chl Large [2]: 0 | Semi-quantitative analysis of proteins binding to different plaque particles: Chl small [3]: 0 | Semi-quantitative analysis of proteins binding to different plaque particles: Synuclein [4]: 18 | Semi-quantitative analysis of proteins binding to different plaque particles: Tau (Tau plaque particles): 0

Phosphatidylcholine-sterol acyltransferase
Semi-quantitative analysis of proteins binding to different plaque particles: Abeta-42 [1]: 0 | Semi-quantitative analysis of proteins binding to different plaque particles: Chl Large [2]: 1 | Semi-quantitative analysis of proteins binding to different plaque particles: Chl small [3]: 0 | Semi-quantitative analysis of proteins binding to different plaque particles: Synuclein [4]: 1 | Semi-quantitative analysis of proteins binding to different plaque particles: Tau (Tau plaque particles): 0

Plasma kallikrein
Semi-quantitative analysis of proteins binding to different plaque particles: Abeta-42 [1]: 0 | Semi-quantitative analysis of proteins binding to different plaque particles: Chl Large [2]: 1 | Semi-quantitative analysis of proteins binding to different plaque particles: Chl small [3]: 3 | Semi-quantitative analysis of proteins binding to different plaque particles: Synuclein [4]: 0 | Semi-quantitative analysis of proteins binding to different plaque particles: Tau (Tau plaque particles): 3

Plasma protease C1 inhibitor
Semi-quantitative analysis of proteins binding to different plaque particles: Abeta-42 [1]: 4 | Semi-quantitative analysis of proteins binding to different plaque particles: Chl Large [2]: 7 | Semi-quantitative analysis of proteins binding to different plaque particles: Chl small [3]: 7 | Semi-quantitative analysis of proteins binding to different plaque particles: Synuclein [4]: 9 | Semi-quantitative analysis of proteins binding to different plaque particles: Tau (Tau plaque particles): 3

Plasminogen
Semi-quantitative analysis of proteins binding to different plaque particles: Abeta-42 [1]: 7 | Semi-quantitative analysis of proteins binding to different plaque particles: Chl Large [2]: 11 | Semi-quantitative analysis of proteins binding to different plaque particles: Chl small [3]: 9 | Semi-quantitative analysis of proteins binding to different plaque particles: Synuclein [4]: 7 | Semi-quantitative analysis of proteins binding to different plaque particles: Tau (Tau plaque particles): 13

Platelet factor 4
Semi-quantitative analysis of proteins binding to different plaque particles: Abeta-42 [1]: 2 | Semi-quantitative analysis of proteins binding to different plaque particles: Chl Large [2]: 1 | Semi-quantitative analysis of proteins binding to different plaque particles: Chl small [3]: 0 | Semi-quantitative analysis of proteins binding to different plaque particles: Synuclein [4]: 1 | Semi-quantitative analysis of proteins binding to different plaque particles: Tau (Tau plaque particles): 1

Serotransferrin
Semi-quantitative analysis of proteins binding to different plaque particles: Abeta-42 [1]: 46 | Semi-quantitative analysis of proteins binding to different plaque particles: Chl Large [2]: 66 | Semi-quantitative analysis of proteins binding to different plaque particles: Chl small [3]: 73 | Semi-quantitative analysis of proteins binding to different plaque particles: Synuclein [4]: 78 | Semi-quantitative analysis of proteins binding to different plaque particles: Tau (Tau plaque particles): 48

Serum amyloid P-component
Semi-quantitative analysis of proteins binding to different plaque particles: Abeta-42 [1]: 5 | Semi-quantitative analysis of proteins binding to different plaque particles: Chl Large [2]: 1 | Semi-quantitative analysis of proteins binding to different plaque particles: Chl small [3]: 1 | Semi-quantitative analysis of proteins binding to different plaque particles: Synuclein [4]: 0 | Semi-quantitative analysis of proteins binding to different plaque particles: Tau (Tau plaque particles): 2

Transthyretin
Semi-quantitative analysis of proteins binding to different plaque particles: Abeta-42 [1]: 14 | Semi-quantitative analysis of proteins binding to different plaque particles: Chl Large [2]: 25 | Semi-quantitative analysis of proteins binding to different plaque particles: Chl small [3]: 21 | Semi-quantitative analysis of proteins binding to different plaque particles: Synuclein [4]: 23 | Semi-quantitative analysis of proteins binding to different plaque particles: Tau (Tau plaque particles): 13

Tropomyosin alpha-3 chain
Semi-quantitative analysis of proteins binding to different plaque particles: Abeta-42 [1]: 5 | Semi-quantitative analysis of proteins binding to different plaque particles: Chl Large [2]: 0 | Semi-quantitative analysis of proteins binding to different plaque particles: Chl small [3]: 0 | Semi-quantitative analysis of proteins binding to different plaque particles: Synuclein [4]: 0 | Semi-quantitative analysis of proteins binding to different plaque particles: Tau (Tau plaque particles): 0

Tubulin beta-4B chain
Semi-quantitative analysis of proteins binding to different plaque particles: Abeta-42 [1]: 0 | Semi-quantitative analysis of proteins binding to different plaque particles: Chl Large [2]: 0 | Semi-quantitative analysis of proteins binding to different plaque particles: Chl small [3]: 0 | Semi-quantitative analysis of proteins binding to different plaque particles: Synuclein [4]: 0 | Semi-quantitative analysis of proteins binding to different plaque particles: Tau (Tau plaque particles): 5

Vitamin K-dependent protein S
Semi-quantitative analysis of proteins binding to different plaque particles: Abeta-42 [1]: 0 | Semi-quantitative analysis of proteins binding to different plaque particles: Chl Large [2]: 0 | Semi-quantitative analysis of proteins binding to different plaque particles: Chl small [3]: 1 | Semi-quantitative analysis of proteins binding to different plaque particles: Synuclein [4]: 0 | Semi-quantitative analysis of proteins binding to different plaque particles: Tau (Tau plaque particles): 0

Vitronectin
Semi-quantitative analysis of proteins binding to different plaque particles: Abeta-42 [1]: 4 | Semi-quantitative analysis of proteins binding to different plaque particles: Chl Large [2]: 4 | Semi-quantitative analysis of proteins binding to different plaque particles: Chl small [3]: 2 | Semi-quantitative analysis of proteins binding to different plaque particles: Synuclein [4]: 4 | Semi-quantitative analysis of proteins binding to different plaque particles: Tau (Tau plaque particles): 4

— patent US9618524B2, “Method, composition, isolation and identification of a plaque particle and related biomarker” (Plaxgen Inc., priority 2012, dated 2017)
